According to US20250201957A1, “SEPARATION RECOVERY METHOD OF METAL IONS AND ACIDIC METAL EXTRACTANT” (FUJIFILM Corporation, priority 2022, published 2025):

Experiment: pKa of metal extractant by neutralization titration
Format: physicochemical
Conditions: not given
Source text: The acidic metal extractant includes two or more coordinating functional groups, and at least one of the coordinating functional groups includes a carboxy group or each of acidic coordinating functional groups where one of R^C's represents a hydrogen atom. In the present invention, the acidic metal extractant is an acidic metal extractant for dissociating hydrogen ions (H^+) and can be defined by an acid dissociation constant pKa. For example, an acidic metal extractant having pkA of 0.1 to 12 is preferable, an acidic metal extractant having pkA of 0.5 to 12 is more preferable, and an acidic metal extractant having pkA of 1 to 8 is still more preferable. In the present invention, the pKa is a value measured by neutralization titration.
Regarding the synthesized or prepared acidic metal extractant, the molecular weight and the pKa calculated using the above-described method are shown in Table 1-2.

Compound | pKa
CCCCC(CC)COP(=O)(CP(=O)(OCC)OCC(CC)CCCC)OCC (stereo not shown) [E-7] | None
Versatic acid 10 [VA-10, reference compound] | 7.9

Same assay, conditions: read-out: pKa

Compound | pKa
CCCCC(CC)COP(=O)(O)CCCP(=O)(O)OCC(CC)CCCC (stereo not shown) [E-1] | 1.1
CCCCC(CC)COP(=O)(O)CP(=O)(O)OCC(CC)CCCC (stereo not shown) [E-2] | 0.8
CCCCC(CC)COP(=O)(O)CP(=O)(OCC)OCC(CC)CCCC (stereo not shown) [E-3] | 2.1
CCCCC(CC)CC(CC(CC)CCCC)(C(=O)O)C(=O)O (stereo not shown) [E-4] | 6.5
CCCCC(CC)COP(=O)(O)CCP(=O)(O)OCC(CC)CCCC (stereo not shown) [E-5] | 0.9
CCCCCCCCOP(=S)(S)CP(=S)(S)OCCCCCCCC (stereo not shown) [E-6] | 0.3
CCCCC(CC)COP(=O)(O)C(C)(O)P(=O)(O)OCC(CC)CCCC (stereo not shown) [E-8] | 1.1
CCCCC(CC)COP(=O)(O)CC(CC)CCCC (stereo not shown) [PC-88A, mono-2-ethylhexyl (2-Ethylhexyl)phosphonate, reference compound] | 4.6
